According to patent US5622962A, “5α-reductase inhibitors” (priority 1995, dated 1997):

Target: T1, Type II 5α-Reductase from Human Prostate (Homo sapiens, UniProt P31213)
T1 construct: The same procedure as above was used for preparations using tissue from prostate surgery; from tissue; host or cells: human prostate tissue from surgery, homogenate, 100,000×g pellet
T1 sequence (P31213 1-254): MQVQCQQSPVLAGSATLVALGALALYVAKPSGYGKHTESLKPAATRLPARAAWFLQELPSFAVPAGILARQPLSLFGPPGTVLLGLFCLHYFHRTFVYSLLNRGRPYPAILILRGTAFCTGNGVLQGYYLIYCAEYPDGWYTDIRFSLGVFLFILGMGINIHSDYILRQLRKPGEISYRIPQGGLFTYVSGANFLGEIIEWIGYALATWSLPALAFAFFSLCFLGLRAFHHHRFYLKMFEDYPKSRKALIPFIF
Experiment: Human Type II 5α-reductase assay (conversion of [3H]-testosterone to 5α-reduced metabolites)
Type: biochemical
Conditions: pH 5.5, 0.3 μM; sodium acetate pH 5.5, 25°, 30 min; compared to control reaction mixtures; read-out: percent inhibition of Type II AR

Row | SMILES | inhibition at 0.3 µM
1 | CN1C(=O)CC[C@]2(C)c3ccc(-c4ccc5c(c4)CCC5O)cc3CC[C@@H]12 (single isomer, unassigned; (+)) [Example 245] | 44%
2 | C[C@]12CCC(=O)N[C@@H]1CCc1cc(Sc3ccccc3)ccc12 [Example 22, (4aR)-(10bR)-8-phenylthio-10b-methyl-1,2,3,4,4a,5,6,10b-octahydrobenzo[f]quinolin-3-one] | 19%
3 | COc1ccc(-c2ccc3c(c2)CC[C@H]2N(C)C(=O)CC[C@]32C)cc1OC [Example 42, (+)-(4 aR)-(10bR)-4-methyl-8-(3,4-dimethoxyphenyl)-10b-methyl-1,2,3,4,4a,5,6,10b-octahydrobenzo[f]quinolin-3-one] | 32%
4 | CN1C(=O)CC[C@]2(C)c3ccc(-c4cccc(F)c4)cc3CC[C@@H]12 [Example 44, (+)-(4aR)-(10bR)-4-methyl-8-(3-fluorophenyl)-10b-methyl-1,2,3,4,4a,5,6,10b-octahydrobenzo[f]quinolin-3-one] | 27%
5 | C[C@]12CCC(=O)N[C@@H]1CCc1cc(-c3cnc4ccccc4c3)ccc12 [Example 45, (+)-(4aR)-(10bR)-8-(3-quinolinyl)-10b-methyl-1,2,3,4,4a,-5,6,10b-octahydrobenzo[f]quinolin-3-one] | 45%
6 | COc1ccc(-c2ccc3c(c2)CC[C@H]2N(C)C(=O)CC[C@]32C)cc1 [Example 47, (+)-(4aR)-(10bR)-4-methyl-8-(4-methoxyphenyl)-10b-methyl-1,2,3,4,4a,5,6,10b-octahydrobenzo[f]quinolin-3-one] | 16%
7 | COc1cccc(-c2ccc3c(c2)CC[C@H]2N(C)C(=O)CC[C@]32C)c1 [Example 48, (+)-(4aR)-(10bR)-4-methyl-8-(3-methoxyphenyl)-10b-methyl-1,2,3,4,4a,5,6,10b-octahydrobenzo[f]quinolin-3-one] | 12%
8 | CN1C(=O)CC[C@]2(C)c3ccc(-c4cccnc4)cc3CC[C@@H]12 [Example 54, (+)-(4aR)-(10bR)-4-methyl-8-(3-pyridyl)-10b-methyl-1,2,3,4,4a,5,6,10b-octahydrobenzo[f]quinolin-3-one] | 22%
9 | CN1C(=O)CC[C@]2(C)c3ccc(-c4cccc(C=O)c4)cc3CC[C@@H]12 [Example 57, (+)-(4aR)-(10bR)-4-methyl-8-(3-formylphenyl)-10b-methyl-1,2,3,4,4a,5,6,10b-octahydrobenzo[f]quinolin-3-one] | 20%
10 | CN(C)c1ccc(-c2ccc3c(c2)CC[C@H]2N(C)C(=O)CC[C@]32C)cc1 [Example 59, (+)-(4aR)-(10bR)-4-methyl-8-(4-dimethylaminophenyl)-10b-methyl-1,2,3,4,4a,5,6,10b-octahydrobenzo[f]quinolin-3-one] | 31%
11 | CN1C(=O)CC[C@]2(C)c3ccc(-c4ccc5cc(O)ccc5c4)cc3CC[C@@H]12 [Example 60, (+)-(4aR)-(10bR)-4-methyl-8-(2-[6-hydroxy]naphthyl)-10b-methyl-1,2,3,4,4a,5,6,10b-octahydrobenzo[f]quinolin-3-one] | 42%
12 | CN1C(=O)CC[C@]2(C)c3ccc(-c4cccc(Cl)c4)cc3CC[C@@H]12 [Example 63, (+)-(4aR)-(10bR)-4-methyl-8-(3-chlorophenyl)-10b-methyl-1,2,3,4,4a,5,6,10b-octahydrobenzo[f]quinolin-3-one] | 19%
13 | CN1C(=O)CC[C@]2(C)c3ccc(-c4ccc5c(c4)OCO5)cc3CC[C@@H]12 [Example 70, (+)-(4aR)-(10bR)-4-methyl-8-(3,4-methylenedioxyphenyl)-10b-methyl-1,2,3,4,4a,5,6,10b-octahydrobenzo[f]quinolin-3-one] | 36%
14 | CN1C(=O)CC[C@]2(C)c3ccc(-c4ccc(OC(F)(F)F)cc4)cc3CC[C@@H]12 [Example 78, (+)-(4aR)-(10bR)-4-methyl-8-(4-trifluoromethoxyphenyl)-10b-methyl-1,2,3,4,4a,5,6,10b-octahydrobenzo[f]quinolin-3-one] | 3%
15 | CN1C(=O)CC[C@]2(C)c3ccc(-c4ccc(C(F)(F)F)cc4)cc3CC[C@@H]12 [Example 79, (+)-(4aR)-(10bR)-4-methyl-8-(4-trifluoromethylphenyl)-10b-methyl-1,2,3,4,4a,5,6,10b-octahydrobenzo[f]quinolin-3-one] | 34%
16 | Cc1cc(C)cc(-c2ccc3c(c2)CC[C@H]2N(C)C(=O)CC[C@]32C)c1 [Example 83, (+)-(4aR)-(10bR)-4-methyl-8-(3,5-dimethylphenyl)-10b-methyl-1,2,3,4,4a,5,6,10b-octahydrobenzo[f]quinolin-3-one] | 12%
17 | CN1C(=O)CC[C@]2(C)c3ccc(-c4ccc(F)cc4)cc3CC[C@@H]12 [Example 85, (+)-(4aR)-(10bR)-4-methyl-8-(4-fluorophenyl)-10b-methyl-1,2,3,4,4a,5,6,10b-octahydrobenzo[f]quinolin-3-one] | 12%

Row | SMILES | inhibition at 0.3 µM
18 | CCOc1ccc(-c2ccc(-c3ccc4c(c3)CC[C@H]3N(C)C(=O)CC[C@]43C)cc2)cc1 [Example 89, (+)-(4aR)-(10bR)-4-methyl-8-(4-[4-ethoxy]biphenyl)-10b-methyl-1,2,3,4,4a,5,6,10b-octahydrobenzo[f]quinolin-3-one] | 15%
19 | CN1C(=O)CC[C@]2(C)c3ccc(-c4cccc(N)c4)cc3CC[C@@H]12 [Example 90, (+)-(4aR)-(10bR)-4-methyl-8-(3-aminophenyl)-10b-methyl-1,2,3,4,4a,5,6,10b-octahydrobenzo[f]quinolin-3-one] | 22%
20 | C[C@]12CCC(=O)N[C@@H]1CCc1cc(-c3cccc4ccccc34)ccc12 [Example 92, (+)-(4aR)-(10bR)-8-(1-naphthyl)-10b-methyl-1,2,3,4,4a,5,6,10b-octahydrobenzo[f]quinolin-3-one] | 10%
21 | C[C@]12CCC(=O)N[C@@H]1CCc1cc(-c3cccc([N+](=O)[O-])c3)ccc12 [Example 93, (+)-(4aR)-(10bR)-8-(3-nitrophenyl)-10b-methyl-1,2,3,4,4a,5,6,10b-octahydrobenzo[f]quinolin-3-one] | 9%
22 | CN1C(=O)CC[C@]2(C)c3ccc(-c4ccc(Cl)cc4Cl)cc3CC[C@@H]12 [Example 94, (+)-(4aR)-(10bR)-4-methyl-8-(2,4-dichlorophenyl)-10b-methyl-1,2,3,4,4a,5,6,10b-octahydrobenzo[f]quinolin-3-one] | 1%
23 | CN1C(=O)CC[C@]2(C)c3ccc(Sc4ccccc4)cc3CC[C@@H]12 [Example 116, (4aR)-(10bR)-4,10b-dimethyl-8-phenylthio-1,2,3,4, -4a,5,6,10b-octahydrobenzo[f]quinolin-3-one] | 24%
24 | CN1C(=O)CC[C@]2(C)c3ccc(-c4ccc(C#N)cc4)cc3CC[C@@H]12 [Example 121, (+)-(4aR)-(10bR)-4-methyl-8-(4-cyanophenyl)-10b-methyl-1,2,3,4,4a,5,6,10b-octahydrobenzo[f]quinolin-3-one] | 41%
25 | CC(C)C(=O)c1ccc(-c2ccc3c(c2)CC[C@H]2N(C)C(=O)CC[C@]32C)cc1 [Example 122, (+)-(4aR)-(10bR)-4-methyl-8-(4-[isopropylcarbonyl]phenyl)-10b-methyl-1,2,3,4,4a,5,6,10b-octahydrobenzo[f]quinolin-3-one] | 36%
26 | CSc1ccccc1-c1ccc2c(c1)CC[C@H]1N(C)C(=O)CC[C@]21C [Example 127, (+)-(4aR)-(10bR)-4-methyl-8-(2-methylthiophenyl)-10b-methyl-1,2,3,4,4a,5,6,10b-octahydrobenzo[f]quinolin-3-one] | 40%
27 | C[C@]12C=CC(=O)N[C@@H]1CCc1cc(-c3cccc4ccccc34)ccc12 [Example 140, (+)-(4aR)-(10bR)-8-(1-naphthyl)-10b-methyl-3,4,4a,5,6,10b-hexahydrobenzo[f]quinolin-3-one] | 20%
28 | C[C@]12C=CC(=O)N[C@@H]1CCc1cc(-c3cccc([N+](=O)[O-])c3)ccc12 [Example 141, (+)-(4aR)-(10bR)-8-(3-nitrophenyl)-10b-methyl-3,4,4a,5,6,10b-hexahydrobenzo[f]quinolin-3-one] | 19%
29 | C[C@]12CCC(=O)N[C@@H]1CCc1cc(-c3cc(C(F)(F)F)nc4c(C(F)(F)F)cccc34)ccc12 [Example 197, (+)-(4aR)-(10bR)-8-(4-[2,8-bistrifluoromethyl]quinolinyl)-10b-methyl-1,2,3,4,4a,5,6,10b-octahydrobenzo[f]quinolin-3-one] | 37%
30 | C[C@]12CCC(=O)N[C@@H]1CCc1cc(-c3nccs3)ccc12 [Example 198, (+)-(4aR)-(10bR)-8-(2-thiazolyl)-10b-methyl-1,2,3,4,4a,-5,6,10b-octahydrobenzo[f]quinolin-3-one] | 7%
31 | C[C@]12CCC(=O)N[C@@H]1CCc1cc(-c3ccc([N+](=O)[O-])cn3)ccc12 [Example 199, (+)-(4aR)-(10bR)-8-(5-nitro-2-pyridinyl)-10b-methyl-1,2,3,4,4a,5,6,10b-octahydrobenzo[f]quinolin-3-one] | 30%
32 | CN1C(=O)CC[C@]2(C)c3ccc(NC(=O)c4cccc([N+](=O)[O-])c4)cc3CC[C@@H]12 [Example 268, (+)-(4aR)-(10bR)-4,10b-dimethyl-8-(3-nitrobenzoylamino)-1,2,3,4,4a,5,6,10b-octahydrobenzo[f]quinolin-3-one] | 18%
33 | CN1C(=O)CC[C@]2(C)c3ccc(NC(=O)c4ccc(N)cc4)cc3CC[C@@H]12 [Example 271, (4aR)-(10bR)-4,10b-dimethyl-8-(4-aminobenzoylamino)-1,2,3,4,4a,5,6,10b-octahydrobenzo[f]quinolin-3-one] | 36%
